Experimental data from ChEMBL document CHEMBL3098003, “Structure-based design of 2-aminopyridine oxazolidinones as potent and selective tankyrase inhibitors” (ACS Med Chem Lett, 2013).
pIC50: −log10 of the molar value. Active and inactive are the calls of the source. No cut-off for these calls is given here.

Columns and labels:
[1] = AUC in CD1 mouse at 30 mg/kg, po; format: ADME, organism-based; set-up: dose 30 mg/kg, route oral; conditions: plasma
[2] = target: Interleukin-1 receptor-associated kinase 4 (Homo sapiens) (UniProt Q9NWZ3); experiment: Inhibition of IRAK4 (unknown origin) at 1 uM after 1 hr
[3] = target: Homeodomain-interacting protein kinase 1 (Homo sapiens) (UniProt Q86Z02); experiment: Inhibition of HIPK1 (unknown origin) at 1 uM after 1 hr
[4] = target: MAP kinase-interacting serine/threonine-protein kinase 1 (Homo sapiens) (UniProt Q9BUB5); experiment: Inhibition of MKNK1 (unknown origin) at 1 uM after 1 hr
[5] = target: Interferon-induced, double-stranded RNA-activated protein kinase (Homo sapiens) (UniProt P19525); experiment: Inhibition of EIF2AK2 (unknown origin) at 1 uM after 1 hr
[6] = target: Mitogen-activated protein kinase kinase kinase 1 (Homo sapiens) (UniProt Q13233); experiment: Inhibition of MAP3K1 (unknown origin) at 1 uM after 1 hr
[7] = Half life in CD1 mouse at 30 mg/kg, po; format: ADME, organism-based; set-up: dose 30 mg/kg, route oral; conditions: in vivo
[8] = Half life in Sprague-Dawley rat at 2 mg/kg, po; format: ADME, organism-based; set-up: dose 2 mg/kg, route oral; conditions: in vivo
[9] = target: Mitogen-activated protein kinase 14 (Homo sapiens) (UniProt Q16539); experiment: Inhibition of MAPK14 (unknown origin) at 1 uM after 1 hr
[10] = target: Serine/threonine-protein kinase D2 (Homo sapiens) (UniProt Q9BZL6); experiment: Inhibition of PRKD2 (unknown origin) at 1 uM after 1 hr
[11] = Elimination half life in Sprague-Dawley rat at 0.5 mg/kg, iv; format: ADME, organism-based; set-up: dose 0.5 mg/kg, route intravenous; conditions: in vivo, read-out: beta t1/2 (converted)
[12] = target: Phosphatidylinositol 4,5-bisphosphate 3-kinase catalytic subunit delta isoform (Homo sapiens) (UniProt O00329); experiment: Inhibition of PIK3CD (unknown origin) at 1 uM after 1 hr
[13] = target: Dual specificity protein kinase CLK4 (Homo sapiens) (UniProt Q9HAZ1); experiment: Inhibition of CLK4 (unknown origin) at 1 uM after 1 hr
[14] = target: Cyclin-dependent kinase 2 (Homo sapiens) (UniProt P24941); experiment: Inhibition of CDK2 (unknown origin) at 1 uM after 1 hr
[15] = Cmax in CD1 mouse at 30 mg/kg, po; format: ADME, organism-based; set-up: dose 30 mg/kg, route oral; conditions: in vivo
[16] = Volume of distribution at steady state in Sprague-Dawley rat at 0.5 mg/kg, iv; format: ADME, organism-based; set-up: dose 0.5 mg/kg, route intravenous; conditions: in vivo, read-out: Vdss
[17] = target: Serine/threonine-protein kinase PLK4 (Homo sapiens) (UniProt O00444); experiment: Inhibition of PLK4 (unknown origin) at 1 uM after 1 hr
[18] = target: Tyrosine-protein kinase Fyn (Homo sapiens) (UniProt P06241); experiment: Inhibition of FYN (unknown origin) at 1 uM after 1 hr
[19] = target: Casein kinase I isoform delta (Homo sapiens) (UniProt P48730); experiment: Inhibition of CSNK1D (unknown origin) at 1 uM after 1 hr
[20] = target: Tyrosine-protein kinase Lck (Homo sapiens) (UniProt P06239); experiment: Inhibition of LCK (unknown origin) at 1 uM after 1 hr
[21] = target: TGF-beta receptor type-2 (Homo sapiens) (UniProt P37173); experiment: Inhibition of TGFBR2 (unknown origin) at 1 uM after 1 hr
[22] = target: Poly [ADP-ribose] polymerase 2 (Homo sapiens, UniProt Q9UGN5); experiment: Inhibition of PARP2 (unknown origin)
[23] = target: Poly [ADP-ribose] polymerase 1 (Homo sapiens, UniProt P09874); experiment: Inhibition of PARP1 (unknown origin)
[24] = target: Mitogen-activated protein kinase kinase kinase 9 (Homo sapiens) (UniProt P80192); experiment: Inhibition of MAP3K9 (unknown origin) at 1 uM after 1 hr
[25] = target: High affinity nerve growth factor receptor (Homo sapiens) (UniProt P04629); experiment: Inhibition of NTRK1 (unknown origin) at 1 uM after 1 hr
[26] = test system: Salmonella typhimurium; experiment: Genotoxicity in Salmonella typhimurium by microAmes assay in presence of S9 fraction; format: toxicity, organism-based; conditions: salmonella enterica subsp. enterica serovar typhimurium
[27] = target: Serine/threonine-protein kinase Nek4 (Homo sapiens) (UniProt P51957); experiment: Inhibition of NEK4 (unknown origin) at 1 uM after 1 hr
[28] = test system: Salmonella typhimurium; experiment: Genotoxicity in Salmonella typhimurium by microAmes assay; format: toxicity, organism-based; conditions: salmonella enterica subsp. enterica serovar typhimurium
[29] = target: Death-associated protein kinase 1 (Homo sapiens) (UniProt P53355); experiment: Inhibition of DAPK1 (unknown origin) at 1 uM after 1 hr
[30] = target: Epithelial discoidin domain-containing receptor 1 (Homo sapiens) (UniProt Q08345); experiment: Inhibition of DDR1 (unknown origin) at 1 uM after 1 hr relative to control
[31] = target: Tyrosine-protein kinase ABL1 (Homo sapiens) (UniProt P00519); experiment: Inhibition of ABL1 (unknown origin) at 1 uM after 1 hr
[32] = Cmax in Sprague-Dawley rat at 2 mg/kg, po; format: ADME, organism-based; set-up: dose 2 mg/kg, route oral; conditions: in vivo
[33] = target: Mitogen-activated protein kinase kinase kinase kinase 4 (Homo sapiens) (UniProt O95819); experiment: Inhibition of MAP4K4 (unknown origin) at 1 uM after 1 hr
[34] = target: Proto-oncogene tyrosine-protein kinase Src (Homo sapiens) (UniProt P12931); experiment: Inhibition of SRC (unknown origin) at 1 uM after 1 hr
[35] = target: Ephrin type-B receptor 3 (Homo sapiens) (UniProt P54753); experiment: Inhibition of EPHB3 (unknown origin) at 1 uM after 1 hr
[36] = Clearance in Sprague-Dawley rat at 0.5 mg/kg, iv; format: ADME, organism-based; set-up: dose 0.5 mg/kg, route intravenous; conditions: in vivo
[37] = AUC in Sprague-Dawley rat at 2 mg/kg, po; format: ADME, organism-based; set-up: dose 2 mg/kg, route oral; conditions: plasma
[38] = Oral bioavailability in Sprague-Dawley rat at 2 mg/kg; format: ADME, organism-based; conditions: in vivo
[39] = target: cAMP-dependent protein kinase catalytic subunit alpha (Homo sapiens) (UniProt P17612); experiment: Inhibition of PRKACA (unknown origin) at 1 uM after 1 hr
[40] = target: Ribosomal protein S6 kinase alpha-1 (Homo sapiens) (UniProt Q15418); experiment: Inhibition of RPS6KA1 (unknown origin) at 1 uM after 1 hr
[41] = target: Non-receptor tyrosine-protein kinase TYK2 (Homo sapiens) (UniProt P29597); experiment: Inhibition of TYK2 (unknown origin) at 1 uM after 1 hr
[42] = target: Tyrosine-protein kinase JAK2 (Homo sapiens) (UniProt O60674); experiment: Inhibition of JAK2 (unknown origin) at 1 uM after 1 hr
[43] = target: Rho-associated protein kinase 2 (Homo sapiens) (UniProt O75116); experiment: Inhibition of ROCK2 (unknown origin) at 1 uM after 1 hr
[44] = target: Wee1-like protein kinase (Homo sapiens) (UniProt P30291); experiment: Inhibition of WEE1 (unknown origin) at 1 uM after 1 hr
[45] = target: Serine/threonine-protein kinase 3 (Homo sapiens) (UniProt Q13188); experiment: Inhibition of STK3 (unknown origin) at 1 uM after 1 hr

Interleukin-1 receptor-associated kinase 4 (Homo sapiens), sequence (Q9NWZ3 whole entry): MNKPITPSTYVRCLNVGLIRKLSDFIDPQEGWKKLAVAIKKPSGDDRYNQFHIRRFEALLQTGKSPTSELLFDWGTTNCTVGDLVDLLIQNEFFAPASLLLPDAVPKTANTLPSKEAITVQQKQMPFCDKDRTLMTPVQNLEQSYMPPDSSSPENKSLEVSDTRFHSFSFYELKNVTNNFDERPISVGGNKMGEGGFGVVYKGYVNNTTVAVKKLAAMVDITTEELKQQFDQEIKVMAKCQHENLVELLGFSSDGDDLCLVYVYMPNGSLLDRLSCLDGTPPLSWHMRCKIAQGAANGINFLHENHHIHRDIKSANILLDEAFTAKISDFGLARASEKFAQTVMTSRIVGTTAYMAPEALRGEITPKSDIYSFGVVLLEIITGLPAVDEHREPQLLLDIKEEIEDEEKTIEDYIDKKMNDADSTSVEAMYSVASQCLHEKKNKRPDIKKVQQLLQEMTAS
Phosphatidylinositol 4,5-bisphosphate 3-kinase catalytic subunit delta isoform (Homo sapiens), sequence (O00329 whole entry, canonical isoform): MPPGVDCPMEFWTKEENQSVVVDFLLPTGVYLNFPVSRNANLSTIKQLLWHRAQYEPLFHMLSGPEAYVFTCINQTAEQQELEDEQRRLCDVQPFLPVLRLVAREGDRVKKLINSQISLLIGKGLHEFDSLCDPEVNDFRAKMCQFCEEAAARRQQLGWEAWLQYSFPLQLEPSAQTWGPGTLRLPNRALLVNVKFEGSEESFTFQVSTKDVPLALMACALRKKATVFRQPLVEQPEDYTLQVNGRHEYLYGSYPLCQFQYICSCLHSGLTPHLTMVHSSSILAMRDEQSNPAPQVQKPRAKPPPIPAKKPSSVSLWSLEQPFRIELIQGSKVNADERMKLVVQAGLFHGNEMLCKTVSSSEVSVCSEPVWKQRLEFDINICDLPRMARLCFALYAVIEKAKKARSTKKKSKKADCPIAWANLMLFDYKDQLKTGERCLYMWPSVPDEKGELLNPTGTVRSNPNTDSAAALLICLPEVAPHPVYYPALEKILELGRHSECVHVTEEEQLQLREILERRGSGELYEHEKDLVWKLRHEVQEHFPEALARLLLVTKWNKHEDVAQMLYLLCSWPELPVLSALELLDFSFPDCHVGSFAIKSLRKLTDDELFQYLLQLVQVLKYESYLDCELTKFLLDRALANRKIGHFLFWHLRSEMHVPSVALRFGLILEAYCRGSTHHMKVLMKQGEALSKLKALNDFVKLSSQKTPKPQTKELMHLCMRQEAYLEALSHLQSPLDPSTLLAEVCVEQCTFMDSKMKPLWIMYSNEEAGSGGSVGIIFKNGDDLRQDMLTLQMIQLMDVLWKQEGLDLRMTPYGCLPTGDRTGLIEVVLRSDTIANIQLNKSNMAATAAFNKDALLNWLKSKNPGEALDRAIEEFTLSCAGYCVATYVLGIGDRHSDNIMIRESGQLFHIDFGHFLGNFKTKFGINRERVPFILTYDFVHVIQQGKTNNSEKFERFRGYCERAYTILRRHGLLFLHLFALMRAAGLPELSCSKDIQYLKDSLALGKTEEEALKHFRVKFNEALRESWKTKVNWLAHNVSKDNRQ
Tyrosine-protein kinase Lck (Homo sapiens), sequence (P06239 2-509 limits assumed): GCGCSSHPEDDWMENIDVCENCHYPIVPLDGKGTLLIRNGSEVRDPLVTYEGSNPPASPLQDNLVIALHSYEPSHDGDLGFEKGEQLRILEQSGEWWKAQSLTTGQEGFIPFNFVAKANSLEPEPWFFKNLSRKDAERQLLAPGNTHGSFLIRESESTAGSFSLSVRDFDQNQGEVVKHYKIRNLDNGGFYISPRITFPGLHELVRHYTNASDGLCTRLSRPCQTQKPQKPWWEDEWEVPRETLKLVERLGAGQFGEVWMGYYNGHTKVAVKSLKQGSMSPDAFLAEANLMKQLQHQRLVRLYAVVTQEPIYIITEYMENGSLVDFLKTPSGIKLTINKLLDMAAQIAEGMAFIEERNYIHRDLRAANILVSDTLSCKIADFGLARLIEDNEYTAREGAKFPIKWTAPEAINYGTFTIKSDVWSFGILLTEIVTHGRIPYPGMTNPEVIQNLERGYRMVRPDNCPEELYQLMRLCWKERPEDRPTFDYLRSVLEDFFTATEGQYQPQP
MAP kinase-interacting serine/threonine-protein kinase 1 (Homo sapiens), sequence (Q9BUB5 whole entry, looked up): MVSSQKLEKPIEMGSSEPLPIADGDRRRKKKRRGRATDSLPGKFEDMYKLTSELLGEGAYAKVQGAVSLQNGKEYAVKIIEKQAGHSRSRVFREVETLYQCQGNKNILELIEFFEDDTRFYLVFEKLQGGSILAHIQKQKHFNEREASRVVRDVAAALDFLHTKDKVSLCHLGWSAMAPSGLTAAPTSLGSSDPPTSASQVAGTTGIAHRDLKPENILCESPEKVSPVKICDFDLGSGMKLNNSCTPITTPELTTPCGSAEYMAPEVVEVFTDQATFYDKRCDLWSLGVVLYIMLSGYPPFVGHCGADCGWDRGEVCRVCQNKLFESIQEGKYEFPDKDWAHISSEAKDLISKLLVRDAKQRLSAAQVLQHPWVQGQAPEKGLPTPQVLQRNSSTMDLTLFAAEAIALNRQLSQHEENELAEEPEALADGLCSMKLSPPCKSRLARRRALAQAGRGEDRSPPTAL
Mitogen-activated protein kinase 14 (Homo sapiens), sequence (Q16539 whole entry): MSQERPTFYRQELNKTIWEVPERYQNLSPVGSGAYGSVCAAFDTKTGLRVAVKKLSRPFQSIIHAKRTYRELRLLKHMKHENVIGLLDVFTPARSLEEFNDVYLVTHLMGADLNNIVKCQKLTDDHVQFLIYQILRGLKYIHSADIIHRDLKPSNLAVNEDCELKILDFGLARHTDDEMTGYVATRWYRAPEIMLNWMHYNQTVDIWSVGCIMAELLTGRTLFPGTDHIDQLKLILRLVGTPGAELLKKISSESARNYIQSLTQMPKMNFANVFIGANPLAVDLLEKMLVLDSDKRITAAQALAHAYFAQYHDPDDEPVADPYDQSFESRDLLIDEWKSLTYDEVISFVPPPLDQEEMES
Mitogen-activated protein kinase kinase kinase kinase 4 (Homo sapiens), sequence (O95819 2-1239 limits assumed): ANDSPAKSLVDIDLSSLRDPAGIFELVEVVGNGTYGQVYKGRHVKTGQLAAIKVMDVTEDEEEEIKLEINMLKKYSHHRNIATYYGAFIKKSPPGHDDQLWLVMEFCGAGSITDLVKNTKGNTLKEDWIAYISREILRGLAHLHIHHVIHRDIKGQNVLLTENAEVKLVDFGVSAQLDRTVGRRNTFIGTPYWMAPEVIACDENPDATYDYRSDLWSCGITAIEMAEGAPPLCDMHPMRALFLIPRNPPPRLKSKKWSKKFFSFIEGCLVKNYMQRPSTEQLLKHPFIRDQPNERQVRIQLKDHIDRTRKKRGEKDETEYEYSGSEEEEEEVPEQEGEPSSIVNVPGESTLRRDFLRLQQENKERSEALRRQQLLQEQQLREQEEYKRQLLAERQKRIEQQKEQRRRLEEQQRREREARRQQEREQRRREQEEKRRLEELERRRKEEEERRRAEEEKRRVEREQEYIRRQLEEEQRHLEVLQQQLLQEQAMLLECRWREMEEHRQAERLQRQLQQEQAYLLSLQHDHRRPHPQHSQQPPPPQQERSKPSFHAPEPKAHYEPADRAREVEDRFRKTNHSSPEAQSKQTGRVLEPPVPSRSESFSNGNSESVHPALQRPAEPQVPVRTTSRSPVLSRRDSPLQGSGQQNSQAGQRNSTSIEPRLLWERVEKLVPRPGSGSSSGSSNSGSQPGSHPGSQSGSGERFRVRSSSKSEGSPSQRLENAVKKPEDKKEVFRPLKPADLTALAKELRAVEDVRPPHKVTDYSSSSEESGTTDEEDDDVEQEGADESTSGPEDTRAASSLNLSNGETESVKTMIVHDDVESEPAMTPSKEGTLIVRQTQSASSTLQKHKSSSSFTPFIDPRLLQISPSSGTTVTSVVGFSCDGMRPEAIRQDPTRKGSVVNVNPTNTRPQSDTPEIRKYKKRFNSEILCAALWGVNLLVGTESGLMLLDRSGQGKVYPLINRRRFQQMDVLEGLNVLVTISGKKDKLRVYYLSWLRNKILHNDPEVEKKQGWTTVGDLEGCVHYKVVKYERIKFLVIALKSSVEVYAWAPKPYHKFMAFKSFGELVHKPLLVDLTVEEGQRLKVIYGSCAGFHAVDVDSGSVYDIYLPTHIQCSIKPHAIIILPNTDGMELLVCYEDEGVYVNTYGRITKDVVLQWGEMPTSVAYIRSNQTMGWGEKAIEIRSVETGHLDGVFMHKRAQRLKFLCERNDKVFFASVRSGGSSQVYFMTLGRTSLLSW
Ribosomal protein S6 kinase alpha-1 (Homo sapiens), sequence (Q15418 whole entry): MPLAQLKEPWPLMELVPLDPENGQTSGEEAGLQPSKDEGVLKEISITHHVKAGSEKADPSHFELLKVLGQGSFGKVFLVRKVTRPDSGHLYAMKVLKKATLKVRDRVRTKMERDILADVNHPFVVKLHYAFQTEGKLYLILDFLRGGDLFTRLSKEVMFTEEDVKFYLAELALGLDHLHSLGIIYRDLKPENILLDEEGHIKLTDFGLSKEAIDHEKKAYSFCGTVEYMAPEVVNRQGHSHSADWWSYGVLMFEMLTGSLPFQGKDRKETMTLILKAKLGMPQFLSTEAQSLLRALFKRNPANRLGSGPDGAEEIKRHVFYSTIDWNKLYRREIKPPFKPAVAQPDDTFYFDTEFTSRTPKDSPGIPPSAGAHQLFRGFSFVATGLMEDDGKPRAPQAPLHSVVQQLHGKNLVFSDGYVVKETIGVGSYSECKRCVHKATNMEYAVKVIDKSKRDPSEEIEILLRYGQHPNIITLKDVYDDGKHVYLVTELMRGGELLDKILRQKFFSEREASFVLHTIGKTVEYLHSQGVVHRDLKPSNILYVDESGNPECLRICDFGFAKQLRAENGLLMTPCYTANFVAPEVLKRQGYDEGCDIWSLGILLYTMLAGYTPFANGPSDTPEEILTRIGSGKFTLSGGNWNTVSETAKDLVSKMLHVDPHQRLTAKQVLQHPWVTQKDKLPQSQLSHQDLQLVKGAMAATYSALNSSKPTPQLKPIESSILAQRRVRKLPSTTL

SMILES: CC1(C)OC(=O)N([C@H]2CC[C@H](c3cnc(N)c(-c4ncccn4)c3)CC2)[C@H]1c1ccccc1
- AUC [1]: 36.3 µM·h
- inhibition [2]: inactive
- inhibition [3]: inactive
- inhibition [4]: inactive
- inhibition [5]: inactive
- inhibition [6]: inactive
- half-life [7]: 3.5 h
- half-life [8]: 2.9 h
- inhibition [9]: inactive
- inhibition [10]: inactive
- half-life [11]: 3.6 h
- inhibition [12]: inactive
- inhibition [13]: inactive
- inhibition [14]: inactive
- Cmax [15]: 6.09 µM
- Vd [16]: 2.85 L/kg
- inhibition [17]: inactive
- inhibition [18]: inactive
- inhibition [19]: inactive
- inhibition [20]: inactive
- inhibition [21]: inactive
- pIC50 [22]: < 3.77
- pIC50 [23]: < 4.07
- inhibition [24]: inactive
- inhibition [25]: inactive
- Activity [26]: Non-toxic
- inhibition [27]: inactive
- Activity [28]: Non-toxic
- inhibition [29]: inactive
- inhibition [30]: 18%
- inhibition [31]: inactive
- Cmax [32]: 0.45 µM
- inhibition [33]: inactive
- inhibition [34]: inactive
- inhibition [35]: inactive
- clearance [36]: 12.5 mL/min/kg
- AUC [37]: 1.98 µM·h
- bioavailability [38]: 33%
- inhibition [39]: inactive
- inhibition [40]: inactive
- inhibition [41]: inactive
- inhibition [42]: inactive
- inhibition [43]: inactive
- inhibition [44]: inactive
- inhibition [45]: inactive

SMILES: CC1(C)OC(=O)N(c2ccc(-c3cnc(N)c(-c4ncccn4)c3)cc2)[C@H]1c1ccccc1
- AUC [1]: 63.3 µM·h
- inhibition [2]: inactive
- inhibition [3]: inactive
- inhibition [4]: inactive
- inhibition [5]: inactive
- inhibition [6]: inactive
- half-life [7]: 3.7 h
- half-life [8]: 4.6 h
- inhibition [9]: inactive
- inhibition [10]: inactive
- half-life [11]: 4.3 h
- inhibition [12]: inactive
- inhibition [13]: inactive
- inhibition [14]: inactive
- Cmax [15]: 7.88 µM
- Vd [16]: 2.32 L/kg
- inhibition [17]: inactive
- inhibition [18]: inactive
- inhibition [19]: inactive
- inhibition [20]: inactive
- inhibition [21]: inactive
- pIC50 [22]: < 3.77
- pIC50 [23]: < 4.07
- inhibition [24]: inactive
- inhibition [25]: inactive
- Activity [26]: Toxic
- inhibition [27]: inactive
- Activity [28]: Toxic
- inhibition [29]: inactive
- inhibition [30]: inactive
- inhibition [31]: inactive
- Cmax [32]: 0.37 µM
- inhibition [33]: inactive
- inhibition [34]: inactive
- inhibition [35]: inactive
- clearance [36]: 8.67 mL/min/kg
- AUC [37]: 2.71 µM·h
- bioavailability [38]: 29%
- inhibition [39]: inactive
- inhibition [40]: inactive
- inhibition [41]: inactive
- inhibition [42]: inactive
- inhibition [43]: inactive
- inhibition [44]: inactive
- inhibition [45]: inactive
